# From US4596710A, “Gallium chloride as a new anti-cancerous drug” (priority 1981, dated 1986)
# Experiments:
# [1] = Acute toxicity on the mouse; format: in vivo; settings: per os
# globular Mg = assay: Globular Mg rates in patients in the course of treatment; format: in vivo, human
# Description: The importance of checking the globular Mg rates was furthermore clearly illustrated by the following two observations (3rd and 4th patients).
# On Sept. […] This was the case. . . […] 29th, 1981. This posology was tolerated up to Nov. […] Up to Nov. […] It was from Sept.
# (§1) A person . . . […] On Oct. […] An exploratory laparotomy was made on Nov. […] 7th, 1982.
# FIGS. 1, 2 and 3 show the curves of the globular Mg (1) and plasmatic Mg (2) rates as a function of time in the course of treatment by gallium chloride (the starting point of the curves corresponding to the first administration) of the three patients. A person […] (1st patient, […] (3rd Patient) and a person […] (4th patient, respectively.
# To follow the globular Mg rates, the dosages must be frequent and repeated, about once a week. In fact, there are cyclic variations of the globular Mg rates with a curve of sinusoidal appearance, and the period of these cycles, like the importance of the globular Mg rates, are a function of the evolutive potential of the malignant tumour (P. COLLERY et col. "Role of Magnesium in the Development of Cancer", Trace Substances in Environmental Health, XII, 1978--A Symposium--University of Missouri--Columbia). The appearance of this curve is modified, as indicated above, by the anti-tumoral therapy by gallium chloride.
# malignant melanoma = assay: 3rd patient: gallium chloride treatment, tumour response; format: in vivo, human
# Description: On Sept. […] This was the case. . . […] Up to Nov. […] It was from Sept.
# [2] = test system: bilateral cystadenocarcinoma of the ovary; assay: 1st patient: gallium chloride treatment, tumour response; format: in vivo, human
# Description: Mrs. […] An epiploic and ganglionary invasion was discovered. Cobalt therapy was then carried out from Nov. 5th, 1979 to Feb. […] Treatment by gallium chloride started on Nov. […] An echotomograph on Dec. […] A third echotomograph was made on Jan. […] However, this was refused by the patient. On Mar.
# adenocarcinoma = assay: Long-term treatment of two bitches with evolutive third recurrence of mammary tumour; format: in vivo, female dogs
# [3] = test system: mammary cancer (tubulo-pillaryadenocarcinoma or mixed-type tumour); assay: Gallium chloride therapy in bitches with mammary cancer (primary tumour or recurrence); format: in vivo, female dogs
# Description: (§2) The anti-tumoral effect of gallium chloride was firstly studied in female dogs having spontaneous malignant tumours of the breast. Gallium chloride therapy was carried out in bitches having a mammary cancer (tubulo-pillaryadenocarcinoma or mixed-type tumour); treatment started either at the stage of the primary tumour (4 bitches) or upon a recurrence after a surgical excision (10 bitches).
# (1) In the 4 bitches treated at the primary tumour stage, the following was observed:
# In two cases, the treatment was continued for two months, the tumour reducing from 10×7 cm to 8.5×7 cm in one case and from 1.5×1.3 to 1.5×1.0 cm in the other case.
# (§3) In the third case, the treatment could be continued for more than six months in a very old bitch of 14 years.
# (2) In the 10 bitches treated at the recurrence stage, the following was observed: […]
# [4] = test system: left axillary lymphadenopathy; assay: 2nd patient: gallium chloride treatment, tumour response
# Description: A complete check-up to seek primary localisation was undertaken. In view of the negative nature of this check-up, the diagnosis of cutaneous primary tumour, developed at the expense of the cutaneous appendants (eccrine tumour) was retained.
# [5] = Clinical, renal and biological tolerance in bitches; format: in vivo, female dogs
# Description: as §2, §3
# Posology of gallium chloride, per os: 7.5 mg/kg from 15.4.1981 to 14.9.1981, then 10 mg/kg.
# [6] = test system: adenocarcinoma of the colon; assay: 4th patient: gallium chloride treatment, tumour response; format: in vivo, human
# Description: as §1
# [7] = test system: epidermoid carcinoma of the oesophagus; assay: 5th patient: gallium chloride treatment, tumour response; format: in vivo, human
# Description: A person . . . Michel: the diagnosis of differenciated, mature and infiltrating epidermoid carcinoma of the oesophagus was made on Sept. 3rd, 1981. This was a voluminous tumour, extending from 23 to 32 cm, from the dental arches (according to the data from the endoscopy) with an invasion of the rear face of the origin of the left principal bronchus and the carina tracheae. In the bronchoscopy of Sept. 8th, 1981, there was a necrotic tumoral bud obstructing the light of the bronchus by two-thirds.
# Gallium chloride therapy was started on Sept.
# A further bronchoscopy was made on Oct. […] The existence of a considerable sub-jacent bronchial stasis and of daily dispnoeic attacks in the evening led to treatment of this bronchial tumour by laser on Oct. 20th, 1981. […] Feeding by the oral route was stopped, as well as the gallium chloride treatment and, after parenteral feeding, a celestine prosthesis was positioned by endoscopic route on Nov. 3rd, 1981. The sequels of the positioning of the prosthesis was marked by the appearance of an infectious bronchial syndrome which led to death of the patient on Nov. 18th, 1981.
# [8] = therapy continued up to Nov. 10th, 1981
smiles,measurement,setting,value
[Cl][Ga]([Cl])[Cl] [gallium chloride],LD50,[1],1790 mg/kg
same,"globular magnesium rates, 4th patient, Oct. 15th, 1981",globular Mg; 300 mg/24 hours oral,3.00 mmol/L
same,"globular magnesium rates, 3rd patient, Oct. 6th, 1981","globular Mg; 800 mg/24 hours, after heparinotherapy stopped",2.96 mmol/L
same,"globular magnesium rates, curves of FIGS. 1-3","globular Mg; 1st, 3rd and 4th patients, when treatment is efficacious",decrease
same,"globular Mg rates, first 4 months, 4th patient",globular Mg; 500 then 300 mg/24 hours oral,normal
same,"correlation between clinical state, carcinoembryonic antigen and globular magnesium rates, 4th patient","globular Mg; human, in vivo",could be emphasized
same,"general state up to Sept. 20th, 1981, 3rd patient",malignant melanoma; 600 mg/24 hours with Calciparin,"satisfactory, with a good appetite"
same,"general state / metastases after Calciparin interruption, 3rd patient","malignant melanoma; gallium chloride increased to 800 mg/24 hours from Sept. 29th, 1981","general state rapidly worsened, with appearance of a metastatic hepatomegaly of which the volume increased rapidly"
same,"clinical state, end of January 1981",[2]; 300 mg per day per os,very satisfactory
same,"superficial palpable mass, end of January 1981",[2]; 300 mg per day per os,had disappeared
same,"volume of the mass of the Douglas pouch, echotomograph Jan. 7th, 1981",[2]; 300 mg per day per os,clearly decreased
same,"mass of the Douglas pouch, echotomograph Dec. 9th, 1980","[2]; 300 mg per day per os from Nov. 1st, 1980, 3.5 cm on Oct. 27th",maintained the same diameter
same,"superficial mass / tissue of infiltration, echotomograph Dec. 9th, 1980","[2]; 300 mg per day per os, 4.4 by 3 cm before treatment",the tissue of infiltration had become a sclerous tissue
same,"death, 1st patient",[2]; after interruption of gallium chloride,"death occurred on May 6th, 1981"
same,"size of the tumour, second bitch (BEL), 4.1.1981","adenocarcinoma; 2.5 mg/kg per os from 27.2.1981, 1.2 cm on 2.27.1981",1.8 cm in diameter
same,"size of the tumour, second bitch (BEL), 4.30.1981",adenocarcinoma; 2.5 mg/kg per os to 30.4.1981,2.3 cm in diameter
same,"tumour evolution after 10.14.1981, first bitch (OUD)","adenocarcinoma; 10 mg/kg per os, up to Dec. 28th, 1981",tumoral stabilisation
same,"pulmonary radiograph, second bitch (BEL)",adenocarcinoma; 5.1.1982,normal
same,"death, first bitch (OUD)","adenocarcinoma; Dec. 28th, 1981, good general state during preceding days",suddenly died (good general state during the preceding days) of a myocardial infarction with acute oedema of the lung and overall heart failure
same,"autopsy, first bitch (OUD)","adenocarcinoma; after death Dec. 28th, 1981",no hepatic nor pulmonary metastases a small nodule of 1 cm in the spleen
same,"tumour growth after 9.1.1981, second bitch (BEL)",adenocarcinoma; per os,the growth clearly slowed down with an obvious change in the consistency of the tumour
same,"tumour growth since Nov. 3rd, 1981, second bitch (BEL)",adenocarcinoma; up to surgical excision,"virtually not enlarged since Nov. 3rd, 1981"
same,"excised piece, second bitch (BEL)",adenocarcinoma; upon opening of excised tumour,considerable necrosis occupying virtually all the tumour
same,results in mammary tumours in the bitch,"[3]; 5 mg/kg, if duration of treatment extended",good results
same,"regression of the tumour, overall","[3]; 5 mg/kg, tumour becomes very hard",Regression of the tumour remains weak
same,regression of the tumour (primary tumour stage),[3]; 4 bitches treated at primary tumour stage,a regression of the tumour in the other three cases
same,death (primary tumour stage),"[3]; 4 bitches treated at primary tumour stage, 1 to 5 mg/kg oral",one death on the 7th day
same,complete remission,"[3]; 10 bitches at recurrence stage, recurrent tumour smaller than 0.6 cm at beginning, two months of treatment",three complete remissions after two months of treatment
same,partial regression of the tumour,"[3]; 10 bitches at recurrence stage, three months of treatment","in 5 bitches, a partial regression of the tumour with hardening thereof"
same,death (recurrence stage),[3]; 10 bitches treated at recurrence stage,"one death in the third week of treatment, due to a pulmonary metastasis"
same,biopsies / histology at the end of the treatment,[3]; recurrence stage,"tumoral cells persisted, but a histological study suggested an increase in the amorphous ground substance with a cellular rarefaction"
same,tumour growth in one bitch,"[3]; recurrence stage, 1 mg/kg one month, 2.5 mg/kg fifteen days, 5 mg/kg last fifteen days",persistent growth of the tumour in one bitch
same,survival,[3]; therapeutic strategy with surgical treatment after gallium chloride,seven out of eight bitches are alive
same,tumour response after resumption of the treatment,"[3]; third case, bitch of 14 years, 2.5 mg/kg, then 1 mg/kg",regressed after resumption of the treatment
same,tumour development during first two months of treatment,"[3]; third case, bitch of 14 years, 5 mg/kg, tumour 3.6×2 cm, doubled in four months preceding treatment",did not develop
same,"hardness of lymphadenopathy, July 23rd, 1981",[4]; 300 mg per day oral,much harder
same,"lymphadenopathy, Jan. 6th, 1982","[4]; 600 mg and 300 mg alternately, oral",no longer perceptible
same,"diameter of lymphadenopathy, Dec. 8th, 1981",[4]; 600 mg per day oral,1 cm in diameter
same,"dorsal osseous pains, 2nd patient","[4]; Jan. 6th, 1982","dorsal osseous pains persisted, but of mechanical type, completely calmed by rest"
same,regression of the lymphadenopathy,"[4]; oral from May 20th, 1981, from end of July 1981",progressive regression of the lymphadenopathy
same,"clinical and biological tolerance, bitches overall",[5]; 5 mg/kg,excellent
same,"clinical and renal tolerance, first bitch (OUD)",[5]; 7.5 mg/kg then 10 mg/kg per os,perfect
same,"clinical and renal tolerance, second bitch (BEL)","[5]; 2.5, 5, then 7 mg/kg per os",perfect
same,dyspnoea leading to stop of treatment,"[5]; dog, in vivo, 5 mg/kg",treatment was stopped for one month due to a dyspnoea
same,"tolerance, bitches","[5]; oral, drinkable ampoules, first bitches 1 mg/kg, particularly digestive","tolerance proved to be good, particularly from the digestive point of view"
same,"prevention of recurrence, 4th patient","[6]; 300 ng per day (so in the source), up to Nov. 10th, 1981",insufficient
same,"carcinoembryonic antigen rates, 4th patient, Oct. 15th, 1981",[6]; 300 mg/24 hours oral,9 ng/mL
same,"carcinoembryonic antigen rates, first 4 months, 4th patient",[6]; 500 then 300 mg/24 hours oral,normal
same,"general state, first 4 months, 4th patient",[6]; 500 then 300 mg/24 hours oral,very satisfactory
same,"exploratory laparotomy, 4th patient","[6]; Nov. 12th, 1981",an indissectable ileomesenteric block and hepatic granulations distributed like grains of rice over the whole of the two lobes of the liver
same,"carcinoembryonic antigen rates, 4th patient, Nov. 26th, 1981",[6]; [8],97 ng/mL
same,"death, 4th patient",[6]; [8],"death occured on Jan. 7th, 1982"
same,"bronchial obstruction, bronchoscopy Oct. 13th, 1981, 5th patient","[7]; 800 mg/24 hours oral from Sept. 21st, 1981",the same bronchial obstruction
same,"death, 5th patient","[7]; infectious bronchial syndrome after prosthesis, treatment already stopped","death of the patient on Nov. 18th, 1981"
